According to patent US6737383B1, “Herbicidal oxadiazolidines” (priority 1999, dated 2004):

Tests used:
[1] = tested on: bedstraw; test: Test B pre/postemergence bedstraw; type: in vivo, Galium aparine
Outline: (§1)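 Herbicidal effect was estimated by eye on a ten-point control scale after plants spent twelve to sixteen days in a greenhouse following soil or foliar treatment. Foliar sprays targeted plants at one to four leaves; all doses were formulated in a non-phytotoxic solvent with surfactant.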

[2] = tested on: surinam grass; test: Test B pre/postemergence surinam grass; type: in vivo, Brachiaria decumbens
Outline: as §1

[3] = tested on: cocklebur; test: Test B pre/postemergence cocklebur; type: in vivo, Xanthium strumarium
Outline: as §1

[4] = tested on: corn; test: Test B pre/postemergence corn; type: in vivo, Zea mays
Outline: as §1

[5] = tested on: crabgrass; test: Test B pre/postemergence crabgrass; type: in vivo, Digitaria sanguinalis
Outline: as §1

[6] = tested on: giant foxtail; test: Test B pre/postemergence giant foxtail; type: in vivo, Setaria faberii
Outline: as §1

[7] = tested on: morningglory; test: Test B pre/postemergence morningglory; type: in vivo, Ipomoea hederacea
Outline: as §1

[8] = tested on: pigweed; test: Test B pre/postemergence pigweed; type: in vivo, Amaranthus retroflexus
Outline: as §1

[9] = tested on: rape; test: Test B pre/postemergence rape; type: in vivo, Brassica napus
Outline: as §1

[10] = tested on: soybean; test: Test B pre/postemergence soybean; type: in vivo, Glycine max
Outline: as §1

[11] = tested on: sugar beet; test: Test B pre/postemergence sugar beet; type: in vivo, Beta vulgaris
Outline: as §1

[12] = tested on: velvetleaf; test: Test B pre/postemergence velvetleaf; type: in vivo, Abutilon theophrasti
Outline: as §1

[13] = tested on: wheat; test: Test B pre/postemergence wheat; type: in vivo, Triticum aestivum
Outline: as §1

[14] = tested on: purple nutsedge; test: Test B pre/postemergence purple nutsedge; type: in vivo, Cyperus rotundus
Outline: as §1

[15] = tested on: duck salad; test: Test B flood test duck salad; type: in vivo, Heteranthera limosa
Outline: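 Read-out is a visual response score from 0 (no effect) to 10 (complete control), assigned by comparison with untreated controls. Treatment was applied at the 2-leaf stage, and plants stayed in the greenhouse for twelve to sixteen days before scoring.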

[16] = Postemergence, Rate 125 g/ha, scale of 0 to 10 where 0 is no effect and 10 is complete control
[17] = Preemergence, Rate 62 g/ha, scale 0 to 10 (0 no effect, 10 complete control)
[18] = Preemergence, Rate 125 g/ha, 0 is no effect, 10 is complete control
[19] = Preemergence, Rate 250 g/ha, scale 0 to 10, 0 is no effect, 10 is complete control
[20] = Preemergence, Rate 500 g/ha, scale 0 to 10 (0 no effect, 10 complete control)
[21] = Rate 62 g/ha, Postemergence, scale of 0 to 10 where 0 is no effect and 10 is complete control
[22] = Rate 250 g/ha, Postemergence, scale 0 to 10, 0 is no effect, 10 is complete control
[23] = Rate 500 g/ha, Postemergence, scale 0 to 10

C=CCn1c(=O)on(C(=O)N(c2ccc(F)cc2F)C(C)C)c1=O [Compound 151]
Bedstraw plant response rating [1, 16]: 3
Bedstraw plant response rating [1, 17]: 0
Bedstraw plant response rating (0 to 10 scale) [1, 18]: 0
Bedstraw plant response rating [1, 19]: 0
Bedstraw plant response rating [1, 20]: 0
Bedstraw plant response rating [1, 21]: 3
Plant response rating, Bedstraw [1, 22]: 4
Bedstraw plant response rating ([1]; Rate 500 g/ha, Postemergence, scale 0 to 10, 0 no effect, 10 complete control): 7
B. signalgrass plant response rating [2, 16]: 4
B. signalgrass plant response rating [2, 17]: 4
B. signalgrass plant response rating [2, 19]: 5
B. signalgrass plant response rating [2, 20]: 7
B. signalgrass plant response rating [2, 21]: 3
Plant response rating, B. signalgrass [2, 22]: 6
B. signalgrass plant response rating ([2]; Rate 500 g/ha, Postemergence, scale of 0 to 10 where 0 is no effect and 10 is complete control): 7
Cocklebur plant response rating [3, 16]: 0
Cocklebur plant response rating [3, 17]: 0
Cocklebur plant response rating [3, 19]: 0
Cocklebur plant response rating [3, 20]: 0
Cocklebur plant response rating [3, 21]: 0
Plant response rating, Cocklebur [3, 22]: 2
Cocklebur plant response rating [3, 23]: 2
Corn plant response rating [4, 16]: 0
Corn plant response rating [4, 17]: 0
Corn plant response rating (0 to 10 scale) [4, 18]: 0
Corn plant response rating [4, 19]: 5
Corn plant response rating [4, 20]: 9
Corn plant response rating [4, 21]: 0
Plant response rating, Corn [4, 22]: 2
Corn plant response rating [4, 23]: 6
Crabgrass plant response rating [5, 16]: 9
Crabgrass plant response rating [5, 17]: 10
Crabgrass plant response rating (0 to 10 scale) [5, 18]: 10
Crabgrass plant response rating [5, 19]: 10
Crabgrass plant response rating [5, 20]: 10
Crabgrass plant response rating [5, 21]: 8
Plant response rating, Crabgrass [5, 22]: 9
Crabgrass plant response rating [5, 23]: 9
Giant foxtail plant response rating [6, 16]: 8
Giant foxtail plant response rating [6, 17]: 9
Giant foxtail plant response rating (0 to 10 scale) [6, 18]: 10
Giant foxtail plant response rating [6, 19]: 10
Giant foxtail plant response rating [6, 20]: 10
Giant foxtail plant response rating [6, 21]: 7
Plant response rating, Giant foxtail [6, 22]: 8
Giant foxtail plant response rating [6, 23]: 8
Morningglory plant response rating [7, 17]: 0
Morningglory plant response rating (0 to 10 scale) [7, 18]: 0
Morningglory plant response rating [7, 19]: 0
Morningglory plant response rating [7, 20]: 0
Morningglory plant response rating [7, 21]: 4
Plant response rating, Morningglory [7, 22]: 6
Morningglory plant response rating [7, 23]: 6
Redroot pigweed plant response rating [8, 16]: 3
Redroot pigweed plant response rating [8, 17]: 10
Redroot pigweed plant response rating (0 to 10 scale) [8, 18]: 10
Redroot pigweed plant response rating [8, 19]: 10
Redroot pigweed plant response rating [8, 20]: 10
Redroot pigweed plant response rating [8, 21]: 3
Plant response rating, Redroot pigweed [8, 22]: 5
Redroot pigweed plant response rating [8, 23]: 7
Rape plant response rating [9, 16]: 0
Rape plant response rating [9, 17]: 2
Rape plant response rating (0 to 10 scale) [9, 18]: 8
Rape plant response rating [9, 19]: 10
Rape plant response rating [9, 20]: 10
Rape plant response rating [9, 21]: 0
Plant response rating, Rape [9, 22]: 0
Rape plant response rating [9, 23]: 2
Soybean plant response rating [10, 16]: 4
Soybean plant response rating [10, 17]: 0
Soybean plant response rating (0 to 10 scale) [10, 18]: 0
Soybean plant response rating [10, 19]: 3
Soybean plant response rating [10, 20]: 7
Soybean plant response rating [10, 21]: 3
Plant response rating, Soybean [10, 22]: 4
Soybean plant response rating [10, 23]: 4
Sugarbeets plant response rating [11, 16]: 3
Sugarbeets plant response rating [11, 17]: 1
Sugarbeets plant response rating (0 to 10 scale) [11, 18]: 8
Sugarbeets plant response rating [11, 19]: 10
Sugarbeets plant response rating [11, 20]: 10
Sugarbeets plant response rating [11, 21]: 2
Plant response rating, Sugarbeets [11, 22]: 3
Sugarbeets plant response rating [11, 23]: 3
Velvetleaf plant response rating [12, 17]: 6
Velvetleaf plant response rating (0 to 10 scale) [12, 18]: 8
Velvetleaf plant response rating [12, 19]: 10
Velvetleaf plant response rating [12, 20]: 10
Velvetleaf plant response rating [12, 21]: 3
Plant response rating, Velvetleaf [12, 22]: 3
Velvetleaf plant response rating [12, 23]: 5
Wheat plant response rating [13, 17]: 2
Wheat plant response rating (0 to 10 scale) [13, 18]: 2
Wheat plant response rating [13, 19]: 4
Wheat plant response rating [13, 20]: 5
Wheat plant response rating [13, 21]: 0
Plant response rating, Wheat [13, 22]: 4
Wheat plant response rating [13, 23]: 8
Nutsedge plant response rating [14, 16]: 3
Nutsedge plant response rating [14, 17]: 0
Nutsedge plant response rating (0 to 10 scale) [14, 18]: 0
Nutsedge plant response rating [14, 19]: 0
Nutsedge plant response rating [14, 20]: 2
Nutsedge plant response rating [14, 21]: 2
Plant response rating, Nutsedge [14, 22]: 5
Nutsedge plant response rating [14, 23]: 5
Ducksalad plant response rating ([15]; Postemergence (flood test species), Rate 125 g/ha, scale of 0 to 10 where 0 is no effect and 10 is complete control): 0
Ducksalad plant response rating ([15]; Rate 62 g/ha, Postemergence section, flood test species, scale of 0 to 10 where 0 is no effect and 10 is complete control): 0
Plant response rating, Ducksalad ([15]; Rate 250 g/ha, Postemergence (flood test), scale 0 to 10, 0 is no effect, 10 is complete control): 0
Ducksalad plant response rating ([15]; Rate 500 g/ha, listed under Postemergence (flood test species), scale 0 to 10): 2
